From patent US20250034413A1, “METHODS FOR DECELLULARIZING ANIMAL TISSUE AND BIOINKS DERIVED THEREFROM” (VIRGINIA COMMONWEALTH UNIVERSITY, priority 2021, published 2025) come the findings set out here.

The subject of one experiment is AGEs in human DMM. As to the kind of experiment: Reduction of AGEs in human decellularized muscle matrix (DMM) from MTF Biologics. Conditions: older human samples, 10 mM ALT-711, 37° C., 5 days. The class given is biochemical. How it is done:
Exemplary method for reducing AGEs in decellularized muscle xi. 10 mM ALT-711 is added to each well, and then placed in the 37° C. incubator for 5 days.
xii. After 5 days, the samples are washed 3 times with diH20 each, and then the samples are frozen at −80° C.
In addition, human decellularized muscle from MTF Biologics was also tested for feasibility to reduce AGEs in older human samples using the same protocol as described above.

In experiment [1] the test system is AGEs in decellularized muscle matrix (DMM). As to the kind of experiment: Reduction of AGEs in decellularized mouse gastrocnemius muscle matrix (DMM). The class given is biochemical. Conditions: C57BL6 mouse gastrocnemius, 2-month vs 20-month; 10 mM ALT-711, 37° C., 5 days; FIG. 3. The protocol:
• i. Gastrocnemius is thawed in a 37° C. water bath and then butterflied. • ii. The muscles are washed in a T-25 flask (standing vertical) with 20 ml of deionized water per well 3 times for 10 minutes each. • iii. Tissue is then treated with 20 ml of 0.25% Trypsin for 12-16 hours in a T-25 flask (standing vertical) on an orbital shaker plate. Use tape to secure the flask in a vertical position. • iv. Trypsin treatment is followed by 3 20 ml 15 minute deionized water washes per well. • v. Tissue is treated with 20 mL of 0.1% TRITON X-100™ in a T-25 flask for 8 hours at 4° C. The volume is replaced with fresh TRITON X-100™ and the tissue is treated for another 16 hours. Treatment is followed by 3 20 ml 15 minute deionized water washes per well. • vi. Samples are placed in 20 mL of 60 mM sodium deoxycholate with 0.6 mM SB-16 for 8 hours in a T-25 flask at 4° C. The volume is replaced with fresh sodium deoxycholate and SB-16 and the tissue is treated for another 16 hours. • vii. Samples are washed as described in deionized water and placed in 20 mL of 70 mM CHAPS for 8 hours in a T-25 mL flask at 4° C. The volume is replaced with fresh CHAPS and the tissue is treated for another 16 hours. • viii. […]

The structures appear in SMILES notation. Entries after “also recorded” stand apart in the source; their conditions may differ.

As for `Cc1sc[n+](CC(=O)c2ccccc2)c1C.[Cl-]` [ALT-711, alargebrium chloride 711], the “AGEs normalized to protein” value with AGEs in human DMM (FIG. 4A) was “reduced AGEs”. Also, in the experiment with AGEs in human DMM (FIG. 4B), the “AGEs normalized to hydroxyproline” value is on record as “reduced AGEs”. The “level of AGEs in decellularized muscle matrix (DMM)” value in experiment [1] is recorded as “reduced levels of AGEs; also recorded: reduces the higher level of AGEs seen in the 20-month decellularized muscle matrix (DMM) to young adult levels”.
